Experimental data published in patent US7087623B2, “Thiazole and other heterocyclic ligands for mammalian dopamine, muscarinic and serotonin receptors and transporters, and methods of use thereof” (Sepracor Inc., priority 2001, dated 2006).
Where two headings read alike, the source gives them in different places.

Assays:
[1] = molecular target: T1, human muscarinic M2 receptor (Homo sapiens, UniProt P08172); experiment: Binding to human muscarinic M2 receptors ([3H]N-methylscopolamine)
T1 construct: expressed in transfected cells; host or cells: BSR-M2H
T1 sequence (P08172 1-466): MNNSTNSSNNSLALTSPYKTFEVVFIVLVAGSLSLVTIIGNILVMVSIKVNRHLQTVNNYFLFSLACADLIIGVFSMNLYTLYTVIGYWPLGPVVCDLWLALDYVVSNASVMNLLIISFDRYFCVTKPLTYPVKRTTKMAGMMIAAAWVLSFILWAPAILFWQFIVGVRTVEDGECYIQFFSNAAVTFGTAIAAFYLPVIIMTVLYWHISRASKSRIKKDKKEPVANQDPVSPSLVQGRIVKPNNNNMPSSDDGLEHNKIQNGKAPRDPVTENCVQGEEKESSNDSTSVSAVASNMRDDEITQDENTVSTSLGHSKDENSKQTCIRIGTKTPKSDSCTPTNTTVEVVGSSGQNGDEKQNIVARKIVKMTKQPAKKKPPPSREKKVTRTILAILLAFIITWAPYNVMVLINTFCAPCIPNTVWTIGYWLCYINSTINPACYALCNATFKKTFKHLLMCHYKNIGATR
Description: This assay measures binding of [^3H]N-methylscopolamine to human muscarinic M2 receptors. BSR-M2H cells transfected with a plasmid encoding the human muscarinic M2 receptor were used to prepare membranes in modified Tris-HCl pH 7.4 buffer using standard techniques. A 5 μg aliquot of membrane was incubated with 0.29 nM [^3H]N-methylscopolamine for 60 minutes at 25° C. Non-specific binding was estimated in the presence of 1 μM atropine. Membranes were filtered and washed 3 times and the filters were counted to determine [^3H]N-methylscopolamine specifically bound. See Buckley, N. J., Bonner, T. I., Buckley, C. M. and Brann, M. R. Antagonist binding properties of five cloned muscarinic receptors expressed in CHO-K1 cells. Mol. Pharmacol. 35: 469–476, 1989; and Delmendo, R. E., Michel, A. D. and Whiting, R. L. Affinity of muscarinic receptor antagonists for the three putative muscarinic binding sites. Br. J. Pharmacol. 96: 457–464, 1989.
(§1) The human 5-HT2a and 5-HT2b screens were conducted according to Bonhaus, D. W. et al. Br. J. Pharmacol. 1995, 115, 622. The human […], W. A. et al. J. Neurochem. 1997, 69, 1449. The human 5-HT6 screen was conducted according to Monsama, F. J. et al. Mol. Pharmacol. 1993, 43, 320. The assay to human D3 receptors was conducted according to Sokoloff, P. et al. Nature 1990, 347;146. The human dopamine transporter assay was conducted according to Gu, H. et. al. J. Biol. Chem. 1994, 269 (10);7124; and Giros, B. et al. Trends. Pharmacol. Sci. 1993, 14: 43. The human muscarinic M1–M4 screens were conducted according to Buckley N. J. et al. Mol. Pharmacol. 1989, 35:469.
(§2) The human dopamine transporter assay was conducted according to Gu, H. et. al. J. Biol. Chem. 1994, 269 (10);7124 and Giros, B. et al. Trends. Pharmacol. Sci. 1993, 14: 43. The human muscarinic M1–M4 screens were conducted according to Buckley N. J. et al. Mol. Pharmacol. 199, 35:469

[2] = molecular target: T2, human dopamine D3 receptor (Homo sapiens, UniProt P35462); experiment: Radioligand binding assay, human dopamine D3 receptors ([3H]Spiperone)
T2 construct: expressed in transfected cells; host or cells: CHO
T2 sequence (P35462 whole entry): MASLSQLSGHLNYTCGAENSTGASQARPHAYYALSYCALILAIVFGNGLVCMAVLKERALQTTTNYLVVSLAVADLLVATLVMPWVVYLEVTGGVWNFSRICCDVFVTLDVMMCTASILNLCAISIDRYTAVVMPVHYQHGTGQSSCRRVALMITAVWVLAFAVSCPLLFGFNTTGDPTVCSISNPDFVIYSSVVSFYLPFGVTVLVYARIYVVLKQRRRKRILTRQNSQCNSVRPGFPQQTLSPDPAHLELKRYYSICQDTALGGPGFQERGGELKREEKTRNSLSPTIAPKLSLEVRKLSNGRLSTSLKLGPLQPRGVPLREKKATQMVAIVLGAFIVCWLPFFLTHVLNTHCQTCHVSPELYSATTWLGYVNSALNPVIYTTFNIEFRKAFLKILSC

[3] = molecular target: T3, human muscarinic M1 receptor (Homo sapiens, UniProt P11229); experiment: Binding to human muscarinic M1 receptors ([3H]N-methylscopolamine)
T3 construct: expressed in transfected cells; host or cells: BSR-M1H
T3 sequence (P11229 1-460): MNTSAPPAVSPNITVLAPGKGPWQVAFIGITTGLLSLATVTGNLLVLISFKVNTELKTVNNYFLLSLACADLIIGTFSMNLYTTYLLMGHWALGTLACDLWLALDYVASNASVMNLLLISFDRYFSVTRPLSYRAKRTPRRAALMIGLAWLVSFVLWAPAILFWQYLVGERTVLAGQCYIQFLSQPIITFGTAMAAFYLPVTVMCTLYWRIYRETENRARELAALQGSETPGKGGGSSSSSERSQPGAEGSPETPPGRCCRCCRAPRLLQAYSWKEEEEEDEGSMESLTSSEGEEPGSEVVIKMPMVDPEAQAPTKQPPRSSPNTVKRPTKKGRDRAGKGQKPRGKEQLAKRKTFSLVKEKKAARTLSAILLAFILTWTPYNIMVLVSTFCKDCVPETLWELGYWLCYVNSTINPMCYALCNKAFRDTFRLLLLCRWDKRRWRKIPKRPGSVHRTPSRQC
Description: This assay measures binding of [^3H]N-methylscopolamine to human muscarinic M1 receptors. BSR-M1H cells transfected with a plasmid encoding the human muscarinic M1 receptor were used to prepare membranes in modified Tris-HCl pH 7.4 buffer using standard techniques. A 25 μg aliquot of membrane was incubated with 0.29 nM [^3H]N-methylscopolamine for 60 minutes at 25° C. Non-specific binding was estimated in the presence of 1 μM atropine. Membranes were filtered and washed 3 times and the filters were counted to determine [^3H]N-methylscopolamine specifically bound. See Buckley, N. J., Bonner, T. I., Buckley, C. M. and Brann, M. R. Antagonist binding properties of five cloned muscarinic receptors expressed in CHO-K1 cells. Mol. Pharmacol. 35: 469–476, 1989; Luthin, G. R. and Wolfe, B. B. Comparison of [^3H]pirenzepine and [^3H]quinuclidinylbenzilate binding to muscarine cholinergic receptors in rat brain. J. Pharmacol. Exp. Ther. 228: 648–665, 1984; and Watson, M., Yamamura, H. I. and Roeske, W. R. A unique regulatory profile and regional distribution of [^3H]pirenzepine binding in the rat provide evidence for distinct M1 and M2 muscarinic receptor subtypes. Life. Sci. 32: 3001–3011, 1983.
as §1, §2

[4] = human, Example 101 table, read-out: IC50 (nM) M2
[5] = Example 20 table, read-out: IC50 (nM) Against Human D3 Receptors
[6] = human, Example 101 table, read-out: IC50 (nM) M1
[7] = human, Example 100 table, read-out: IC50 (nM) M2
[8] = human, Example 100 table, read-out: IC50 (nM) D3
[9] = human, Example 100 table, read-out: IC50 (nM) M1

SMILES	IC50 [1, 4] [nM]	IC50 [2, 5] [nM]	IC50 [3, 6] [nM]	IC50 [1, 7] [nM]	IC50 [2, 8] [nM]	IC50 [3, 9] [nM]	further results
CN1CCN(c2nc(C3(c4csc5ccc(Cl)cc45)CCOCC3)cs2)CC1 [Compound 36]	> 1000	< 1000	> 1000	–	–	–	–
CN1CCN(c2nc(C3(c4ccccc4F)CCCC3)cs2)CC1 [Compound 93]	< 500	< 1000	< 500	–	–	–	–
Clc1ccc(C2(c3csc(N4CCNCC4)n3)CCOCC2)cc1 [Compound 37]	> 1000	< 1000	< 500	–	–	–	–
CN1CCN(c2nc(C3(c4ccccc4F)CCCCC3)cs2)CC1 [Compound 83]	> 1000	< 100	< 500	–	–	–	–
CN1CCN(c2nc(C3(c4ccccc4F)CCOCC3)cs2)CC1 [Compound 112]	–	–	–	> 1000	< 1000	< 1000	–
CN1CCN(c2nc(C3(c4cccc(Cl)c4)CCOCC3)cs2)CC1 [Compound 63]	> 1000	< 1000	> 1000	–	–	–	–
CN1CCCC1CCNc1nc(C2(c3ccccc3F)CCCCC2)cs1 (single isomer, unassigned) [Compound 130, {4-[1-(2-fluorophenyl)-cyclohexyl]-thiazol-2-yl}-[2-(1-methyl-pyrrolidin-2-yl)-ethyl]-amine]	–	–	–	> 1000	< 100	> 1000	–
CN1CCCC1CCNc1nc(C2(c3ccccc3F)CCCCC2)cs1 (racemic) [Compound 128, {4-[1-(2-fluorophenyl)-cyclohexyl]-thiazol-2-yl}-[2-(1-methyl-pyrrolidin-2-yl)-ethyl]-amine]	–	–	–	> 1000	< 100	< 1000	–
CN1CCN(c2nc(C3(c4ccccc4)CCOCC3)cs2)CC1 [Compound 59]	–	–	–	–	–	–	IC50 [1]: > 1000 nM; IC50 ([2]; IC50 (nM) Against Human D3 Receptors, Example 20 table): > 1000 nM; IC50 [3]: > 1000 nM
